Measured values taken from patent US7560105B1, “Dendritic cells activated in the presence of glucocorticoid hormones are capable of suppressing antigen-specific T cell responses” (Leids Universitair Medisch Centrum, priority 1999, dated 2009).

Legend:
[1] = test system: human monocyte-derived DC; assay: DC surface phenotype by flow cytometry after CD40 ligation; type: cell-based; details: DEX titration, data not shown
Experimental: Immature DC were generated from peripheral blood monocyte precursors (PBMC). Human PBMC from healthy donors, isolated through Ficoll-Hypaque density centrifugation were plated at 1.5×10^7 per well in 6-well plates (Costar Corp., Cambridge, Mass.) in RPMI 1640 (Life Technologies, Paisley, Scotland) supplemented with 2 mM glutamine, 100 UI/ml penicillin and 10% FCS. After 2 h at 37° C., the nonadherent cells were removed and the adherent cells were cultured in medium containing 500 U/ml IL-4 (Pepro Tech Inc. Rocky Hill, N.J.) and 800 U/ml GM-CSF (kindly provided by Dr S. Osanto, LUMC, Leiden, NL) for a total of 7 days.
Activation of DC though CD40 was performed with a fusion protein made of the extracellular domain of human CD40L and of the murine CD8a chain (CD 8-CD40L). The CD8-CD40L cDNA described by Garrone et al. (23) was transferred into an eukaryotic expression vector containing the hygromycin resistance gene and used for the generation of stably transfected Chinese Hamster Ovary (CHO) cells. […] DC were incubated at 5×10^5/ml/well in a 24-well plate (Costar Corp., Cambridge, Mass.) and activated in the presence of 1/10 CD8-CD40L supernatant. Cells and supernatants were analyzed after 48 h. […]
Cells were stained on ice with FITC or PE-conjugated mouse monoclonal antibodies (MoAb) for 30 min in PBS 1% FCS and were analyzed on a FACScan® (Becton Dickinson, San Jose, Calif.). […]

[2] = test system: human monocyte-derived DC; assay: Cytokine detection by ELISA in DC culture supernatants; type: cell-based; details: CD40 triggering of DEX-treated DC vs untreated
Experimental: Data are representative from 6 independent experiments.
Activation of DC though CD40 was performed with a fusion protein made of the extracellular domain of human CD40L and of the murine CD8a chain (CD 8-CD40L). The CD8-CD40L cDNA described by Garrone et al. (23) was transferred into an eukaryotic expression vector containing the hygromycin resistance gene and used for the generation of stably transfected Chinese Hamster Ovary (CHO) cells. […] DC were incubated at 5×10^5/ml/well in a 24-well plate (Costar Corp., Cambridge, Mass.) and activated in the presence of 1/10 CD8-CD40L supernatant. Cells and supernatants were analyzed after 48 h. Of note, control supernatants obtained from untransfected CHO cells or from CHO cells transfected with the CD8a cDNA lacked DC activating functions and were similar to culture medium.
Culture supernatants were analyzed in serial two-fold dilutions in duplicate. IL-12p70 was detected using a solid phase sandwich ELISA kit (Diaclone Research, Besancon, France) (sensitivity 3 pg/ml). For IL-12p40 and IFN-g detection, capture MoAb and polyclonal biotinylated detection Ab were obtained from Peter van de Meijde (BPRC, Rijswijk, NL) (sensitivity 10 pg/ml). IL-10 was detected using the Pelikine compact human IL-10 ELISA kit (CLB, Amsterdam, NL) (sensitivity 3 pg/ml).

SMILES: C[C@@H]1C[C@H]2[C@@H]3CCC4=CC(=O)C=C[C@]4(C)[C@@]3(F)[C@@H](O)C[C@]2(C)[C@@]1(O)C(=O)CO [DEX, dexamethasone]
- CD40-mediated phenotypic changes ([1]; 10^-9 M): no effect
- CD40-mediated phenotypic changes ([1]; 10^-10): no effect
- enhancement of IL-10 production [2]: up to 50 fold
- reduction of IL-12p40 production [2]: up to 100 fold
